Where two headings read alike, the source gives them in different places. *1 amine or outer side, *2 acyl side, *3 side chain or, on linkers, in order; H or OH if unused. Where a SMILES comes first, the peptide text is derived from it. Where no end group is shown, it is not given here. [ ]: non-standard residue; d: D form. The star is where a group is joined. Dolaproine = CO[C@@H]([C@@H]1CCCN1)[C@@H](C)C(=O)O; Hexanoyl(6-maleimido) = O=C1C=CC(=O)N1CCCCCC(=O)*; Dil = CC[C@H](C)[C@H](NC)[C@@H](CC(=O)O)OC; PABC = O=C(OCc1ccc(N[*:1])cc1)[*:2]; X1 = C[C@@H](N*)[C@@H](O)c1ccccc1; Cit = NC(=O)NCCC[C@H](N)C(=O)O; NMeV = CN[C@H](C(=O)O)C(C)C
Legend:
[1] = tested on: PSMA-negative/ANXA1-negative human prostate cancer cells PC3 and PSMA-positive/ANXA1-positive PC3 cells; assay: Anticancer treatment in back subcutaneous PC3 tumor model; assay type: in vivo, nude mice
Method: 1 × 10^6 PSMA-negative/ANXA1-negative human prostate cancer cells PC3 were inoculated into the left back of nude mice, and 1 × 10^6 PSMA-positive/ANXA1-positive PC3 cells were inoculated into the right back of the nude mice. […] As control, 0.919 mg/kg (22.975 ng vcMMAE/25 g mouse) of vcMMAE alone (molecular weight: 1316.6) was administered. The tumor size was monitored by measuring the average radiance (photon/sec/cm^2/sr) of the luciferase-expressing tumor after injection of luciferin (150 mg/mouse) using an IVIS system. After three courses of administration, the tumor size, body weight, pathological test, blood biochemical test, and blood cell count test values were evaluated (FIG. 41).

[2] = tested on: PSMA-negative/ANXA1-negative human prostate cancer cells PC3 and PSMA-positive/ANXA1-positive PC3 cells; assay: Anticancer treatment in femur subcutaneous PC3 tumor model; assay type: in vivo, nude mice; conditions: vcMMAE-dhp7 1.25 mg/kg or vcMMAE 0.919 mg/kg intraperitoneal every four days, three courses; femur tumors
Method: (§1) As control, 0.919 mg/kg (22.975 ng vcMMAE/25 g mouse) of vcMMAE alone (molecular weight: 1316.6) was administered. The tumor size was monitored by measuring the average radiance (photon/sec/cm^2/sr) of the luciferase-expressing tumor after injection of luciferin (150 mg/mouse using an IVIS system. After three courses of administration, the average radiance of the luciferase-expressing tumor and the body weight were evaluated (FIG. 46).

[3] = tested on: PC3-Luc2-PSMA+/ANXA1-positive cells; assay: Cytotoxicity (Cell Counting Kit-8) to ANXA1-positive PC3 cells; assay type: cell-based, human
Method: (§2) The cell viability was analyzed by Cell Counting Kit-8 (Dojindo), and the IC50 value was calculated (FIG. 40).

[4] = tested on: PSMA-positive/ANXA1-positive PC3 cells; assay: Anticancer treatment in femur PC3 tumor model at same vcMMAE dose; assay type: in vivo, mice; conditions: four courses; for average radiance of luciferase-expressing tumor: vcMMAE-dhp7 2.14 mg/kg or vcMMAE 1.25 mg/kg intraperitoneal every four days
Method: as §1, with “2 × 10^6 PSMA-positive/ANXA1-positive PC3 cells were inoculated into the right femur. […] As” for “As”, “1.25” for “0.919”, “(31.25” for “(22.975”, “four” for “three”, “48).” for “46).”

[5] = tested on: mouse bladder cancer cells MBT2; assay: Boron neutron capture therapy (BNCT) in mouse bladder cancer model; assay type: in vivo, C3H/HeN mice
Method: Since it was found in Example 6 that ^10BSH-dhp7 is taken up into Anxa1-positive cancer cells, boron neutron capture therapy by ^10BSH-dhp7 was attempted in a mouse bladder cancer model.
Starting from 48 hours after the administration, the tumor area was irradiated with thermal neutrons at 20 MeV 100 mA for 60 minutes using an accelerator manufactured by Sumitomo Heavy Industries (dose: 1.63 × 10^12/cm^2, average 0.23 Gy). One week after the irradiation, second BNCT treatment was performed. 24 hours prior to irradiation with thermal neutrons, 20 mg/kg (0.4 mg/20 g mouse) of ^10BSH-dhp7 was intraperitoneally administered. Irradiation with thermal neutrons was then performed. One week after the second irradiation, mice of each group were sacrificed. The tumor size and the tumor weight were measured, and pathological analysis of the resected tissue was performed to verify the antitumor effect. The tumor volume was measured from the start of administration until sacrifice by the calculation formula: V = long axis × short axis × short axis/2) (FIG. 17).

[6] = tested on: MBT2 and PC3-PSMA+ cells; assay: Uptake of ^10BSH in cancer cells by immunofluorescent staining with anti-^10BSH antibody; assay type: cell-based; conditions: 50 µg added, 24 hours; compared with ^10BSH
Method: Uptake of ^10BSH-dhp7 in cancer cells was examined. 50 µg of ^10BSH-dhp7 or ^10BSH was added to MBT2 and PC3-PSMA+ cells seeded in a 3.5 cm culture dish (ib81156) manufactured by ibidi. 24 hours later, the cells were washed with PBS three times and then fixed with 4% PFA. After blocking with 3% BSA BD PhosFlow perm/wash buffer I (BD557885), 3% BSA BD PhosFlow perm/wash buffer I containing 1 µg/ml of the rabbit anti-^10BSH polyclonal antibody #52 was reacted at room temperature for one hour with ^10BSH taken up into the cells. After washing with PBS three times, it was reacted at room temperature for one hour with an APC-labeled anti-mouse IgG antibody (diluted 1000-fold) to detect the rabbit anti-^10BSH polyclonal antibody, and washed with PBS three times. Then, intracellular uptake of ^10BSH-dhp7 or ^10BSH in each cancer cell was examined by a fluorescence microscope (Keyence BZ9000) (FIG. 16).

[7] = tested on: PC3, SAS, and MG-63 cells; assay: Uptake of ^10BSH in PC3, SAS and MG-63 cells by immunofluorescent staining; assay type: cell-based, human; conditions: compared with non-addition group
Method: (§3) Uptake of ^10BSH-vc-dhp7 in cancer cells was examined. 330 µg of ^10BSH-vc-dhp7, 403.6 µg of […](EMCS-^10BSH)RR (IF7-^10BSH (a compound described in WO2019244954)) (SEQ ID NO: 40 ([…])), or 50 µg of ^10BSH was added to PC3-PSMA+ and PC3-PSMA- cells seeded in a 3.5 cm culture dish (ib81156) manufactured by ibidi. 24 hours later, the cells were washed with PBS three times and then fixed with 4% PFA. Each peptide-boron compound was prepared to have a boron concentration that allows 50 µg of ^10BSH to be finally added. After blocking with 3% BSA BD PhosFlow perm/wash buffer I (BD557885), 3% BSA BD PhosFlow perm/wash buffer I containing 1 µg/ml of the rabbit anti-^10BSH polyclonal antibody #52 was reacted at room temperature for one hour with ^10BSH taken up into the cells. After washing with PBS three times, it was reacted at room temperature for one hour with an APC-labeled anti-mouse IgG antibody (diluted 1000-fold) to detect the rabbit anti-^10BSH polyclonal antibody, and washed with PBS three times. Then, intracellular uptake of […], IF7-^10BSH, or ^10BSH in each cancer cell was examined by a fluorescence microscope (Keyence BZ9000) (FIGS. 27 and 28).

[8] = State of dissolution in physiological saline at dosing concentration; assay type: physicochemical; conditions: dosing solutions: ^10BSH 1.25 mg/25 g mouse, ^10BSH-vc-dhp7 8.25 mg/25 g mouse, IF7-^10BSH 10.08 mg/25 g mouse
Description: Thus, it was shown that ^10BSH-vc-dhp7 is more soluble and more flexible in designing the dosage form than IF7-^10BSH.

[9] = tested on: human head and neck cancer cells SAS; assay: BNCT in ANXA1-positive head and neck cancer model; assay type: in vivo, nude mice
Method: (§4) Since it was found in Example 10 that the boron concentration in the tumor tissue by administration of ^10BSH-vc-dhp7 is sufficient for the antitumor effect of neutron capture therapy (BNCT), boron neutron capture therapy by EMCS-^10BSH-vc-dhp7 was attempted in ANXA1-negative human prostate cancer and ANXA 1-positive head and neck cancer models. […] Starting from 24 hours after the administration, the tumor area was irradiated with thermal neutrons at 20 MeV 100 mA for 60 minutes using an accelerator manufactured by Sumitomo Heavy Industries (dose: 1.63 × 10^12/cm^2, average 0.23 Gy). One week after the irradiation, second BNCT treatment was performed.
(§5) Irradiation with thermal neutrons was then performed. One week after the second irradiation, mice of each group were sacrificed. The tumor size and the tumor weight were measured, and pathological analysis of the resected tissue was performed to verify the antitumor effect. The tumor volume was measured from the start of administration until sacrifice by the calculation formula: V = long axis × short axis × short axis/2) (FIGS. 38 and 39).

[10] = tested on: PC3-PSMA+ and PC3-PSMA- cells; assay: Uptake of ^10BSH in PC3 cells by immunofluorescent staining (Val-Cit conjugate); assay type: cell-based, human
Method: as §3

[11] = tested on: human prostate cancer cells PC3-PSMA-/ANXA1-; assay: BNCT in ANXA1-negative prostate cancer model; assay type: in vivo, nude mice; conditions: ^10BSH 50 mg/kg or conjugate 330 mg/kg intraperitoneal, two irradiations
Method: as §4, §5

[12] = molecular target: L-MC16 (L-amino acid MC16 peptide, 15 N-terminal residues of annexin A1) (human or mouse ANXA1 ("such as human ANXA1 or mouse ANXA1")); assay: BLI (Octet K2), biotinylated D-peptide on SSA biosensor, L-MC16 as analyte, 37°C, 1:1 model
[13] = tested on: human head and neck cancer cells SAS and human osteosarcoma cancer cells MG-63; conditions: mouse, in vivo
[14] = tested on: PC3-PSMA-/ANXA1- and PC3-PSMA+/ANXA1+; conditions: mouse, in vivo, ip, 28.7 mg/kg
Description: Further, variation in accumulation depending on the tumor size was examined. […] Tumor accumulation was examined in the same manner as above (FIG. 22).

[15] = tested on: PC3-Luc2-PSMA-/ANXA1-negative cells; assay: Cytotoxicity (Cell Counting Kit-8) to ANXA1-negative PC3 cells; assay type: cell-based, human; conditions: 37°C for 24 hours; cell viability by Cell Counting Kit-8
Method: as §2

Compound: CC[C@H](C)[C@@H]([C@@H](CC(=O)N1CCC[C@H]1[C@H](OC)[C@@H](C)C(=O)N[C@H](C)[C@@H](O)c1ccccc1)OC)N(C)C(=O)[C@@H](NC(=O)[C@H](C(C)C)N(C)C(=O)OCc1ccc(NC(=O)[C@H](CCCNC(N)=O)NC(=O)[C@@H](NC(=O)CCCCCN2C(=O)C=CC2=O)C(C)C)cc1)C(C)C [vcMMAE] ({Hexanoyl(6-maleimido)}-V[Cit][PABC][NMeV]V[Dil][Dolaproine]-X1)
- white blood cell count ([1]; 0.919 mg/kg, post-treatment): reduced
- average radiance of luciferase-expressing tumor [2]: tended to increase
- in-vitro sensitivity of Anxa1-positive cells relative to ANXA1-negative cells [3]: twice
- average radiance of luciferase-expressing tumor [4]: tended to increase

Compound: EMCS-^10BSH-hpnevrs (HPNEVRS; not fully specified (some residues, N-terminus); printed as EMCS-^10BSH-hpnevrs) [^10BSH-dhp7]
- tumor reduction effect, non-BNCT treatment group ([5]; 20 mg/kg intraperitoneal, no irradiation): no tumor reduction effect was observed
- tumor reduction effect, BNCT treatment group ([5]; 20 mg/kg intraperitoneal, two thermal neutron irradiations, one week after the second irradiation): tumors almost completely disappeared
- residual tumors in pathological analysis of resected tissues ([5]; administration and BNCT treatment group): no residual tumors in four of eight cases
- intracellular uptake of ^10BSH (fluorescence) [6]: dotted intracellular fluorescence was observed

Compound: EMCS-^10BSH-val-cit-hpnevrs ([dH][dP][dN][dE][dV][dR][dS]; not fully specified (N-terminus); printed as EMCS-^10BSH-val-cit-hpnevrs) [^10BSH-vc-dhp7]
- intracellular intake of ^10BSH [7]: statistically significant intracellular intake of ^10BSH in all cells
- state in physiological saline [8]: in a dissolved state
- tumor growth suppressing effect, BNCT treatment group ([9]; ANXA1-positive head and neck cancer model, 330 mg/kg intraperitoneal, starting immediately after the first BNCT): tumor growth suppressing effect more remarkable than that in the ^10BSH and BNCT treatment group
- tumor volume compared with ^10BSH and BNCT treatment group ([9]; one week after the second irradiation): reduced tumor volume
- efficiency of intracellular intake of ^10BSH ([10]; ANXA1-positive PC3 cells, versus IF7-^10BSH and ^10BSH treatment groups): statistically significantly higher
- uptake in PSMA-negative cells compared with PSMA-positive cells ([10]; PSMA-negative cells expressing less ANXA1 on the cell surface): took up ^10BSH-vc-dhp7 less than the PSMA-positive cells did
- intracellular uptake of ^10BSH (fluorescence) ([10]; amount equal to 50 µg of ^10BSH, 24 hours, compared with ^10BSH): more dotted intracellular fluorescence was observed
- tumor reduction effect, BNCT treatment group [11]: no tumor reduction effect was observed

Compound: IFLLWQRK(EMCS-^10BSH)RR (EMCS-10BSH boron cluster; C-terminal RR) [IF7-^10BSH, reference compound]
- state in physiological saline [8]: poorly soluble and cloudy

Compound: biotin-dhp7 (D-amino acid peptide hpnevrs modified with biotin at the N-terminus)
- Kd [12]: 480 nM

Compound: biotin-dqy7 (D-amino acid peptide qyatnlk modified with biotin at the N-terminus)
- Kd [12]: 990 nM

Compound: biotin-dst7 (D-amino acid peptide stsrntl modified with biotin at the N-terminus)
- Kd [12]: 720 nM

Compound: c(MI-Cy7.5)-vc-hpnevrs [Cy7.5-vc-dhp7]
- start of selective accumulation in the tumor tissue [13]: 60 min
- time of maximum tumor accumulation [13]: 2 to 24 h
- tumor accumulation maintained until [13]: 96 h
- start of selective accumulation in the tumor tissue [14]: 60 min
- tumor accumulation maintained until [14]: 96 h

Compound: c(vcMMAE)-hpnevrs [vcMMAE-dhp7]
- average radiance of luciferase-expressing tumor ([1]; 1.25 mg/kg intraperitoneal every four days, three courses, back subcutaneous tumors): almost completely reduced
- appearance and HE staining of resected tumors ([1]; in contrast to vcMMAE alone administration group): marked necrotic change and fewer residual tumors were observed
- CD31-positive vessel density in the residual tumors ([1]; versus vcMMAE treatment group): statistically significantly reduced
- average radiance of luciferase-expressing tumor [2]: reduced similarly over the three courses of treatment
- IC50 value [15]: 204.5 ng
- IC50 value ([3]; 37°C for 24 hours, cell viability by Cell Counting Kit-8): 122.7 ng
- in-vitro sensitivity of Anxa1-positive cells relative to ANXA1-negative cells ([3]; PC3 cells): twice
- resected tumor weights compared with vcMMAE treatment group [4]: markedly smaller
- average radiance of luciferase-expressing tumor [4]: markedly reduced

From patent EP4772523A1, “D-PEPTIDE AND USE THEREOF” (HIROSAKI UNIVERSITY, priority 2023, dated 2025)
